Measurements reported in PubChem BioAssay AID1963835 (Molecular Pharmacology Branch, DTP, NCI, 2024).
pIC50: −log10 of the molar value. Values joined by “and” are separate entries in the source; they are usually repeats but may differ in a detail not shown here. Equal entries are not always repeated.

Test system: 699152-130-R-J1-PDC complex spheroid viability
Assay: Anticancer human tumor 699152-130-R-J1-PDC patient-derived pancreatic carcinoma cell line growth inhibition [POLQ]
Settings: for viability, T/C: stronger effect = lower value; active = viability on the fitted dose curve at most 10% of control; inactive = the rest
Procedure: Multicellular complex tumor spheroid response to Polymerase (POL) inhibitors (novobiocin, ART-558, RP6685) in combination with a variety of drugs and investigational agents in selected tumor cell lines
The POL inhibitors (novobiocin, ART-558, and RP6685) were evaluated both individually and in combination with standard of care and investigational anticancer small molecules within a complex spheroid model of solid tumors. . Complex spheroids include a stromal component modeled by human endothelial cells (HUVEC) and fibroblasts modeled by human mesenchymal stem cells (MSCs). The concentration ranges selected for each drug and investigational agent were based upon clinically achievable concentrations if the clinical Cmax of the agent was known.
Compounds. The drugs and investigational agents: novobiocin (NSC847541), ART-558 (NSC835418), RP-6685 (NSC848927), peposertib (NSC802822), ceralasertib (NSC780249), elimusertib (NSC800525), camonsertib (NSC841442), AZD-1390 (NSC803789), olaparib (NSC753686), talazoparib (NSC767125), rucaparib (NSC756644), sotorasib (NSC818433), MRTX-1133 (NSC836407), SN-38 (NSC673596), topotecan (NSC609699), epotoside (NSC141540), doxorubicin (NSC123127), gemcitabine (NSC613327), 5-fluorouracil (NSC19893), paclitaxel (NSC125973), vemurafenib (NSC761431), MSA-2 (NSC828583), SN-011 (NSC837082), adavosertib (NSC754352), prexasertib (NSC758257), carboplatin (NSC241240) and oxaliplatin (NSC266046), were obtained from the National Cancer Institute (NCI) Developmental Therapeutics Program Chemical Repository (21). The FDA-approved anticancer drug set is available from the Developmental Therapeutics Program at https://dtp.cancer.gov/organization/dscb/obtaining/. […] The stock solutions were prepared in dimethyl sulfoxide (DMSO, Sigma-Aldrich, St. Louis, MO, cat. D2650), except for the platinum compounds which were prepared in saline (Quality Biological, Gaithersburg, MD, cat. 114-055-101), at 800-fold the tested concentration and stored at -70 degrees C prior to their use. All drugs and investigational agents were tested over a range starting from a high concentration at or near the clinical Cmax and decreasing in half-log increments. If the clinical Cmax for an agent had not been determined, the highest concentration tested was 10 microM, except for SN-38, which was tested at a high concentration of 1 microM.
Cell Culture. All cells were maintained in an incubator at 37 degrees C and 5% CO2 with 95% humidity. The PDC lines were cultured according to standard operating procedures established by the NCI PDMR (https://pdmr.cancer.gov). Table 3 of the manuscript, lists the cell lines along with the number of the three cell types plated to form the mct-spheroids and media for tumor cell growth. After thawing, all PDC lines, except 997537-175-T-J1-PDC and 415267-285-R-J2-PDC, were cultured in Matrigel-coated flasks prepared with a working solution of 1X Ham's F-12 nutrient mix, without supplementation (Thermo Fisher Scientific, cat. 11765054), 100 U/mL penicillin-streptomycin (Thermo Fisher Scientific, cat. 15140122), and 2.5% Matrigel (Corning Inc., Corning, NY, cat. 354248) for the first three passages. The two PDC lines 997537-175-T-J1-PDC and 415267-285-R-J2-PDC were cultured on uncoated flasks. The 857933-349-R-J2-PDC line was cultured in 6C/Colon 1B media containing advanced DMEM/F-12 (Thermo Fisher Scientific, cat. 12634028), 10 mM HEPES (Thermo Fisher Scientific, cat. 15630080), 1X GlutaMAX supplement (Thermo Fisher Scientific, cat. 35050061), 0.1 mg/mL primocin (InvivoGen, San Diego, CA, cat. ant-pm-2), 10% defined fetal bovine serum, heat inactivated (HyClone Laboratories Inc., Logan, UT, cat. SH30070.03HI), 50% L-WRN conditioned media (ATCC, cat. CRL-3276), 1.25 mM N-Acetyl-L-cysteine (Sigma-Aldrich, cat. A9165), 10 mM nicotinamide (Sigma-Aldrich, cat. N0636), 1X B-27 supplement (Thermo Fisher Scientific, cat. 17504044), 1X N-2 supplement (Thermo Fisher Scientific, cat. […]

[1] = curve of first compound, second compound 0.0316 µM
[2] = curve of first compound, second compound 0.1 µM
[3] = curve of first compound, second compound 0.316 µM
[4] = curve of first compound, second compound 1 µM
[5] = curve of first compound, second compound 3.16 µM
[6] = curve of first compound, second compound 10 µM
[7] = second compound 0.0316 µM, first compound 0.00316 µM
[8] = second compound 0.0316 µM, first compound 0.01 µM
[9] = second compound 0.0316 µM, first compound 0.0316 µM
[10] = second compound 0.0316 µM, first compound 0.1 µM
[11] = second compound 0.1 µM, first compound 0.00316 µM
[12] = second compound 0.1 µM, first compound 0.01 µM
[13] = second compound 0.1 µM, first compound 0.0316 µM
[14] = second compound 0.1 µM, first compound 0.1 µM
[15] = second compound 0.316 µM, first compound 0.00316 µM
[16] = second compound 0.316 µM, first compound 0.01 µM
[17] = second compound 0.316 µM, first compound 0.0316 µM
[18] = second compound 0.316 µM, first compound 0.1 µM
[19] = second compound 1 µM, first compound 0.00316 µM
[20] = second compound 1 µM, first compound 0.01 µM
[21] = second compound 1 µM, first compound 0.0316 µM
[22] = second compound 1 µM, first compound 0.1 µM
[23] = second compound 3.16 µM, first compound 0.00316 µM
[24] = second compound 3.16 µM, first compound 0.01 µM
[25] = second compound 3.16 µM, first compound 0.0316 µM
[26] = second compound 3.16 µM, first compound 0.1 µM
[27] = second compound 10 µM, first compound 0.00316 µM
[28] = second compound 10 µM, first compound 0.01 µM
[29] = second compound 10 µM, first compound 0.0316 µM
[30] = second compound 10 µM, first compound 0.1 µM
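Note: spheroids exposed to agents for 7 days before viability reading.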
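Throughout, for viability, T/C: percent of DMSO vehicle control viability so 100% = vehicle and 0% = no viable signal.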

O=C(Nc1ccc(O)c(NS(=O)(=O)c2ccc(F)cc2)c1)c1ccc(-c2ccccc2)cc1
inactive: viability, T/C (compound 0.0316 µM) 114% and 90.3% and 92.6% | viability, T/C (compound 0.1 µM) 104% and 94.2% and 112% | viability, T/C (compound 0.316 µM) 101% and 103% (2×) | viability, T/C (compound 1 µM) 102% and 109% and 107% | viability, T/C (compound 3.16 µM) 106% and 108% and 112% | viability, T/C (compound 10 µM) 71.6% and 70% and 81.6%
< 5.00: pIC50 (curve of compound)

COc1cccc2c1C(=O)c1c(O)c3c(c(O)c1C2=O)CC(O)(C(=O)CO)CC3OC1CC(N)C(O)C(C)O1 (centres undefined)
inactive: viability, T/C (compound 0.0316 µM) 72.5% and 86.9% and 85.1% | viability, T/C (compound 0.1 µM) 60.1% and 60.5% and 89.2% | viability, T/C (compound 0.316 µM) 48.5% and 51.9% and 44.8% | viability, T/C (compound 1 µM) 31.2% and 30.2% and 27.1% | viability, T/C (compound 3.16 µM) 2.58% and 1.68% and 2.6%
active: viability, T/C (compound 10 µM) 11.1% and 13.1% and 12.4%
6.54 and 6.59 and 6.49: pIC50 (curve of compound)

Cc1cccc(N(C)C(=O)C2C(O)CCN2c2nc(C)cc(C(F)(F)F)c2C#N)c1 (centres undefined)
< 5.00: pIC50 (compound alone, run of 11/27/2023) | pIC50 (compound alone, run of 12/05/2023)
inactive: viability, T/C (compound 0.0316 µM) 105% [middle of 13 runs] | viability, T/C (compound 0.1 µM) 102% [middle of 13 runs] | viability, T/C (compound 0.316 µM) 101% [middle of 13 runs] | viability, T/C (compound 1 µM) 104% [middle of 13 runs] | viability, T/C (compound 10 µM) 102% [middle of 13 runs]

CCc1cc2c(N3CCc4c(cc(Cn5ccnc5)cc4-c4cn(C)nc4C(F)(F)F)C3=O)ccnc2c(OC)n1
< 5.00: pIC50 (curve of compound)
inactive: viability, T/C (compound 0.0316 µM) 88.3% and 83.8% and 90.8% | viability, T/C (compound 0.1 µM) 81.6% and 90.7% and 76.9% | viability, T/C (compound 0.316 µM) 86.3% and 93.2% and 101% | viability, T/C (compound 1 µM) 102% and 81.5% and 103% | viability, T/C (compound 3.16 µM) 99.5% and 98.2% and 112% | viability, T/C (compound 10 µM) 89% and 94.7% and 88.3%

CC(C)n1c(=O)n(C)c2cnc3cc(F)c(-c4ccc(OCCCN5CCCCC5)nc4)cc3c21
< 5.00: pIC50 (curve of compound)
inactive: viability, T/C (compound 0.0316 µM) 93.3% and 103% and 119% | viability, T/C (compound 0.1 µM) 88.1% and 91.7% and 92.8% | viability, T/C (compound 0.316 µM) 98.6% and 105% and 99.7% | viability, T/C (compound 1 µM) 110% and 102% and 97.5% | viability, T/C (compound 3.16 µM) 96.3% and 110% and 87.4% | viability, T/C (compound 10 µM) 87.1% and 91.8% and 85.5%

Cn1ncnc1[C@H]1c2n[nH]c(=O)c3cc(F)cc(c23)N[C@@H]1c1ccc(F)cc1 + COC1C(OC(N)=O)C(O)C(Oc2ccc3c(O)c(NC(=O)c4ccc(O)c(CC=C(C)C)c4)c(=O)oc3c2C)OC1(C)C
inactive: viability, T/C (second compound 0.0316 µM, first compound 0.000316 µM) 114% | viability, T/C (second compound 0.0316 µM, first compound 0.001 µM) 86.2% | viability, T/C [7] 101% | viability, T/C [8] 93.4% | viability, T/C [9] 92.9% | viability, T/C [10] 84.8% | viability, T/C (second compound 0.1 µM, first compound 0.000316 µM) 102% | viability, T/C (second compound 0.1 µM, first compound 0.001 µM) 105% | viability, T/C [11] 87.1% | viability, T/C [12] 111% | viability, T/C [13] 85% | viability, T/C [14] 80% | viability, T/C (second compound 0.316 µM, first compound 0.000316 µM) 101% | viability, T/C (second compound 0.316 µM, first compound 0.001 µM) 99.5% | viability, T/C [15] 92.3% | viability, T/C [16] 103% | viability, T/C [17] 87.8% | viability, T/C [18] 83.6% | viability, T/C (second compound 1 µM, first compound 0.000316 µM) 119% | viability, T/C (second compound 1 µM, first compound 0.001 µM) 107% | viability, T/C [19] 101% | viability, T/C [20] 102% | viability, T/C [21] 93.9% | viability, T/C [22] 82.5% | viability, T/C (second compound 3.16 µM, first compound 0.000316 µM) 95.3% | viability, T/C (second compound 3.16 µM, first compound 0.001 µM) 89.3% | viability, T/C [23] 90.9% | viability, T/C [24] 96.9% | viability, T/C [25] 90.8% | viability, T/C [26] 80.8% | viability, T/C (second compound 10 µM, first compound 0.000316 µM) 98.7% | viability, T/C (second compound 10 µM, first compound 0.001 µM) 105% | viability, T/C [27] 93.9% | viability, T/C [28] 103% | viability, T/C [29] 88.4% | viability, T/C [30] 90.4%
< 7.00: pIC50 [1] | pIC50 [2] | pIC50 [3] | pIC50 [4] | pIC50 [5] | pIC50 [6]

CCc1c2c(nc3ccc(O)cc13)-c1cc3c(c(=O)n1C2)COC(=O)[C@]3(O)CC + Cc1cccc(N(C)C(=O)C2C(O)CCN2c2nc(C)cc(C(F)(F)F)c2C#N)c1
7.33: pIC50 [4]
7.41: pIC50 [1]
7.20: pIC50 [5]
7.43: pIC50 [2]
7.30: pIC50 [6]
7.31: pIC50 [3]
inactive: viability, T/C [7] 64.4% | viability, T/C [8] 54.2% | viability, T/C [9] 48.2% | viability, T/C [10] 46.4% | viability, T/C (second compound 0.0316 µM, first compound 0.316 µM) 30.4% | viability, T/C (second compound 0.0316 µM, first compound 1 µM) 10.9% | viability, T/C [11] 78.5% | viability, T/C [12] 57.1% | viability, T/C [13] 49.8% | viability, T/C [14] 44.9% | viability, T/C (second compound 0.1 µM, first compound 0.316 µM) 26.1% | viability, T/C (second compound 0.1 µM, first compound 1 µM) 8.04% | viability, T/C [15] 79.2% | viability, T/C [16] 55.2% | viability, T/C [17] 50.5% | viability, T/C [18] 51.6% | viability, T/C (second compound 0.316 µM, first compound 0.316 µM) 29.1% | viability, T/C (second compound 0.316 µM, first compound 1 µM) 8.39% | viability, T/C [19] 77.9% | viability, T/C [20] 61.1% | viability, T/C [21] 52.3% | viability, T/C [22] 47.4% | viability, T/C (second compound 1 µM, first compound 0.316 µM) 26.1% | viability, T/C (second compound 1 µM, first compound 1 µM) 10.2% | viability, T/C [23] 87% | viability, T/C [24] 68.8% | viability, T/C [25] 56.3% | viability, T/C [26] 48.6% | viability, T/C (second compound 3.16 µM, first compound 0.316 µM) 29.7% | viability, T/C (second compound 3.16 µM, first compound 1 µM) 12.6% | viability, T/C [27] 78.5% | viability, T/C [28] 58% | viability, T/C [29] 51.4% | viability, T/C [30] 47.9% | viability, T/C (second compound 10 µM, first compound 0.316 µM) 33.2% | viability, T/C (second compound 10 µM, first compound 1 µM) 9.43%
